{"source": "patent US10626118B2", "about": "“Pyrrolopyrimidine crystal for preparing JAK inhibitor” (Chia Tai Tianqing Pharmaceutical Group Co., Ltd., priority 2016, dated 2020)", "key": {"[1]": {"experiment": "Stability test, open clean container at 60° C.", "format": "physicochemical", "protocol": "The crystal A obtained in Method 1 of Example 2 and the crystal B obtained in Example 3 were placed in an open clean container at 60° C., and sampled for detection on days 5 and 10, respectively."}, "[2]": {"settings": "rats, 30 mg/kg PO; FDA pharmacology review; cited from earlier work"}, "[3]": {"settings": "dogs, Male, FDA pharmacology review, cited from earlier work"}}, "note": "Where two headings read alike, the source gives them in different places.", "data": [{"smiles": "N#CC[C@H](C1CCCC1)n1cc(-c2ncnc3[nH]ccc23)c(N)n1", "note": "[Crystal A of compound represented by formula I] [(3R)-3-[3-amino-4-(7H-pyrrolo[2,3-d]pyrimidin-4-yl)-1H-pyrazol-1-yl]-3-cyclopentyl-propionitrile]", "values": [{"measurement": "Content (%)", "setting": "[1]; Day 0", "result": 99.72, "unit": "%"}, {"measurement": "Total Impurity (%)", "setting": "[1]; Day 0", "result": 0.28, "unit": "%"}, {"measurement": "Content (%)", "setting": "[1]; Day 5", "result": 99.71, "unit": "%"}, {"measurement": "Total Impurity (%)", "setting": "[1]; Day 5", "result": 0.29, "unit": "%"}, {"measurement": "Content (%)", "setting": "[1]; Day 10", "result": 99.73, "unit": "%"}, {"measurement": "Total Impurity (%)", "setting": "[1]; Day 10", "result": 0.27, "unit": "%"}]}, {"smiles": "N#CC[C@H](C1CCCC1)n1cc(-c2ncnc3[nH]ccc23)c(N)n1", "note": "[Crystal B of compound represented by formula I] [(3R)-3-[3-amino-4-(7H-pyrrolo[2,3-d]pyrimidin-4-yl)-1H-pyrazol-1-yl]-3-cyclopentyl-propionitrile]", "values": [{"measurement": "Content (%)", "setting": "[1]; Day 0", "result": 99.23, "unit": "%"}, {"measurement": "Total Impurity (%)", "setting": "[1]; Day 0", "result": 0.77, "unit": "%"}, {"measurement": "Content (%)", "setting": "[1]; Day 5", "result": 99.23, "unit": "%"}, {"measurement": "Total Impurity (%)", "setting": "[1]; Day 5", "result": 0.77, "unit": "%"}, {"measurement": "Content (%)", "setting": "[1]; Day 10", "result": 99.22, "unit": "%"}, {"measurement": "Total Impurity (%)", "setting": "[1]; Day 10", "result": 0.78, "unit": "%"}]}, {"smiles": "N#CC[C@H](C1CCCC1)n1cc(-c2ncnc3[nH]ccc23)cn1", "note": "[Ruxolitinib]", "values": [{"measurement": "AUCINFobs", "setting": "[2]", "result": 1345, "unit": "ng·h/mL"}, {"measurement": "AUCINF_obs", "setting": "[3]; IV 5 mg/kg", "result": 13776, "unit": "ng·h/mL"}, {"measurement": "AUCINF_obs", "setting": "[3]; PO 10 mg/kg", "result": 15716, "unit": "ng·h/mL"}]}]}
